From paper PMC8333425, “Discovery of a dual Ras and ARF6 inhibitor from a GPCR endocytosis screen” (Nature Communications, 2021)
“And” between values parts separate entries of the source, which are not always exact repeats. Identical values can stand only once.

Assays:
H-Ras = H-Ras (Homo sapiens, UniProt P01112); assay: In vitro mant-GTP exchange assay, purified H-Ras with 40 mM EDTA; type: biochemical; parameters: the cDNA of H-Ras (full length) was obtained by RT-PCR of HEK293SL; GST (N); made in house; host or cells: E. coli BL21
Chain of H-Ras (P01112 whole entry): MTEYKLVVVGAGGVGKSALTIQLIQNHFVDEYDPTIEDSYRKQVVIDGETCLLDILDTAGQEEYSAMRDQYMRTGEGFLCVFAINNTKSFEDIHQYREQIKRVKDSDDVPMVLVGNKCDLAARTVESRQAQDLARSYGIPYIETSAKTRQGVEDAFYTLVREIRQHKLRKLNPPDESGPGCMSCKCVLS
Experimental: Ras activity was assessed in a 384-well black bottom plate using the mant-GTP exchange factor assay that measures the uptake of the fluorescent nucleotide analog N-methylanthraniloyl-GTP (mant-GTP) into GTPases. For Ras activation, 2X exchange buffer, 1.66 μg of purified pGEX-6P-1-H-Ras or pGEX-6P-1-K-Ras-WT or pGEX-6P-1-K-Ras-Y32A were added per well in presence of DMSO, different concentrations of Rasarfin (as indicated) or 50 µM of compounds 21.4, 21.7, or 21.8. Using the Infinite 200 Pro plate reader (Tecan) with filters set at 360 nm and 440 nm for detecting the excitation and emissions, respectively, and temperature set at 20 °C, 5 readings were recorded every 5 s before the addition of either H2O, 40 mM EDTA or 0.66 μg purified SOS1. The fluorescence of mant-GTP uptake was measured every 30 sec for 30 min and quantified as the delta relative fluorescence units (RFU), which was calculated as the RFU post-addition minus the 5 averaged RFU pre-addition, per condition.

Rho = Rho BRET sensor (PKN-RBD-RlucII / rGFP-CAAX; Gα12/13), AT1R-mediated; type: cell-based, human
Experimental: HEK293SL cells were seeded at a density of 7.5 × 10^5 cells per 100-mm dish and 24 h later, transiently transfected as such. For receptor internalization experiments, cells were transfected with 0.12 μg AT1R-RlucII, B2R-RlucII, or β2AR-RlucII and 0.48 μg of either rGFP-CAAX (to assess removal from the PM) or rGFP-FYVE (to assess accumulation in the endosomes). For β-arrestin recruitment assays, cells were transfected with 0.48 μg of receptor-YFP along with 0.12 μg of β-arrestin-RlucII. For β-arrestin/AP-2 binding experiments, cells were transfected with 1 μg Flag-AT1R, 1 μg β2-Adaptin-YFP, and 0.12 μg β-arrestin2-RlucII. For G protein activation, cells were transfected with 3 μg of sp-Flag-AT1R along with either 4.5 μg of the Gαq-polycistronic BRET sensor or 0.24 μg of the Gαi3-RlucII and 0.6 μg of GFP10-Gγ2 and Gβ1 sensors or 0.12 μg PKN-RBD-RlucII and 0.48 μg of rGFP-CAAX. For PKC activation, cells were transfected with 3 μg of sp-Flag-AT1R and 0.18 μg of the PKC sensor. For GTPase activation experiments, cells were transfected with 1 μg Flag-AT1R, 0.48 μg of rGFP-CAAX, and either 0.12 μg of GGA3-PBD-RlucII, PAK-CRIB-RlucII or Raf-RBD-RlucII. For biosensor validation experiments, cells were additionally transfected with 500 ng Flag-K-Ras-WT, Flag-K-Ras-G12V, Flag-K-Ras-SOS-CAAX, HA-ARF6-WT, HA-ARF6-T27N, Myc-Rac1-WT, Myc-Rac1-Q61L or Myc-Rac1-T17N. For PI3K/Akt activation experiments, cells were transfected with 0.48 μg of rGFP-CAAX and 0.12 μg of Akt (PH)-RlucII. After 18 h of transfection, the media was replaced and cells were divided for subsequent experiments. Cells were detached and seeded onto poly-L-ornithine-coated 96-well flat white bottom plates (BrandTech Scientific) at a density of 2.5 × 10^4 cells per well in media. The next day, cells were washed once with Tyrode’s buffer (140 mM NaCl, 2.7 mM KCl, 1 mM CaCl2, 12 mM NaHCO3, 5.6 mM D-glucose, 0.5 mM MgCl2, 0.37 mM NaH2PO4, 25 mM HEPES, pH 7.4) and left in Tyrode’s buffer. For kinetics of β-arrestin recruitment or β-arrestin binding to receptor and AP-2 experiments, cells were serum starved for 30 min, pretreated with 21 (50 µM) or Barbadin (100 µM) for 30 min, stimulated with 100 nM AngII or 1 µM BK and BRET signals were monitored at indicated times using a Victor X Light plate reader (PerkinElmer). Coelenterazine H (final concentration of 5 µM) was added 3–5 min prior to BRET measurements. Filter set was 460/80 nm and 535/30 nm for detecting the RlucII Renilla luciferase (donor) and YFP (acceptor) light emissions, respectively. The BRET ratio was determined by calculating the ratio of the light emitted by YFP over the light emitted by the RlucII. For G protein activation, cells were serum starved, pretreated with compounds for 30 min, stimulated with 100 nM AngII for 2 min (Gαq, Gαi3, and Rho sensors) or 5 min (PKC sensor). For the kinetics of GTPase and PI3K/Akt activation, cells were serum starved, pretreated with 21 (50 µM) or Wortmannin (200 nM) for 30 min, stimulated with ligand (100 nM AngII or 100 ng/ml EGF) and BRET signals were monitored at indicated times. For concentration-response curves, cells were serum-starved, pretreated with various concentrations of compounds for 30 min and stimulated with ligand (100 nM AngII, 1 µM BK, 10 µM Isoproterenol (Iso) or 100 ng/ml EGF) in Tyrode’s buffer for 30 min for receptor internalization, 10 min for ARF6, 2 min for Rac and Rho activation and 5 min for Ras activation and PI3K/Akt activation. BRET signals were monitored using a Synergy2 (BioTek) microplate reader and coelenterazine 400a (final concentrations of 5 µM) added 3–5 min prior to BRET measurements. Filter set was 410/80 nm and 515/30 nm for detecting the RlucII Renilla luciferase (donor) and rGFP/GFP10 (acceptor) light emissions, respectively. The BRET ratio was determined by calculating the ratio of the light emitted by rGFP/GFP10 over the light emitted by the RlucII.

Gαi3 = Gαi3 BRET sensor, AT1R-mediated; type: cell-based, human
Experimental: HEK293SL cells were seeded at a density of 7.5 × 10^5 cells per 100-mm dish and 24 h later, transiently transfected as such. For receptor internalization experiments, cells were transfected with 0.12 μg AT1R-RlucII, B2R-RlucII, or β2AR-RlucII and 0.48 μg of either rGFP-CAAX (to assess removal from the PM) or rGFP-FYVE (to assess accumulation in the endosomes). For β-arrestin recruitment assays, cells were transfected with 0.48 μg of receptor-YFP along with 0.12 μg of β-arrestin-RlucII. For β-arrestin/AP-2 binding experiments, cells were transfected with 1 μg Flag-AT1R, 1 μg β2-Adaptin-YFP, and 0.12 μg β-arrestin2-RlucII. […] For kinetics of β-arrestin recruitment or β-arrestin binding to receptor and AP-2 experiments, cells were serum starved for 30 min, pretreated with 21 (50 µM) or Barbadin (100 µM) for 30 min, stimulated with 100 nM AngII or 1 µM BK and BRET signals were monitored at indicated times using a Victor X Light plate reader (PerkinElmer). […] The BRET ratio was determined by calculating the ratio of the light emitted by YFP over the light emitted by the RlucII. […] For the kinetics of GTPase and PI3K/Akt activation, cells were serum starved, pretreated with 21 (50 µM) or Wortmannin (200 nM) for 30 min, stimulated with ligand (100 nM AngII or 100 ng/ml EGF) and BRET signals were monitored at indicated times. […]

EGFR = assay: BRET concentration-response, EGFR of Fig1d source data; type: cell-based, human

Question: Which results are given for `CC(C)C(=O)N1CCN(c2ccc(NC(=O)c3cc4ccccc4o3)cc2Cl)CC1` [Compound 21]?
Answer: mant-GTP binding to purified H-Ras promoted by EDTA (H-Ras): also inhibited mant-GTP binding promoted by EDTA; Gα12/13 engagement by AT1R (BRET sensor) (Rho; 50 μM): lack of inhibitory effects; Rho MEAN (Fig.4d) (Rho; Log [Comp 21] (M) -4): 111.903; Rho MEAN (Fig.4d) (Rho; Log [Comp21] (M) -4.3): 104.855; Rho MEAN (Fig.4d) (Rho; Log [Comp21] (M) -5): 98.5192; Rho MEAN (Fig.4d) (Rho; Log [Comp21] (M) -5.3): 89.4095; Rho MEAN (Fig.4d) (Rho; Log [Comp 21] (M) -6): 96.851; Rho MEAN (Fig.4d) (Rho; Log [Comp21] (M) -6.3): 103.786; Rho MEAN (Fig.4d) (Rho; Log [Comp 21] (M) -7): 100.394; Rho BRET sensor signal (S_Fig.4b), single experiments (Rho; listed as Comp 21): 0.2652 and 0.266 and 0.2953; AT1R-mediated activation of a Rho BRET sensor (Rho; up to 100 µM of 21): did not inhibit; Gαi3 engagement by AT1R (BRET sensor) (Gαi3; 50 μM): lack of inhibitory effects; Gi3 BRET sensor signal (S_Fig.4b), single experiments (Gαi3; listed as Comp 21): 0.11 and 0.122; EGFR, ligand-promoted BRET (Mean) (EGFR; Log [Comp21] (M) -4.3): 103.469 percent compared to DMSO; EGFR, ligand-promoted BRET (Mean) (EGFR; Log [Comp21] (M) -4.6): 97.8054 percent compared to DMSO; EGFR, ligand-promoted BRET (Mean) (EGFR; Log [Comp21] (M) -5): 87.6772 percent compared to DMSO; EGFR, ligand-promoted BRET (Mean) (EGFR; Log [Comp21] (M) -5.3): 105.328 percent compared to DMSO; EGFR, ligand-promoted BRET (Mean) (EGFR; Log [Comp 21] (M) -6): 96.2669 percent compared to DMSO; EGFR, ligand-promoted BRET (Mean) (EGFR; Log [Comp21] (M) -6.3): 100.826 percent compared to DMSO; EGFR, ligand-promoted BRET (Mean) (EGFR; Log [Comp 21] (M) -7): 105.279 percent compared to DMSO
